Entries after “also recorded” stand apart in the source; their conditions may differ.
Columns and labels:
PTPμ = PTPμ (Homo sapiens, UniProt P28827); experiment: PTPμ-dependent Sf9 aggregation assay; format: cell-based; conditions: 100 μM; 20 min pretreatment; in words
LN229 cells [1] = experiment: LN229 glioma sphere formation and growth assay; format: cell-based, human; conditions: for Effect on LN229 sphere formation: day 1; for Effect on LN229 sphere formation / Effect on LN229 sphere growth: in words
Procedure: FIGS. 5(A-E) illustrate a histogram and images showing the results of the LN229 sphere formation and growth assays. Selected inhibitors, activators, and control compounds identified in LN229 and/or U87 scratch wound closure assays were retested at 100 μM in a secondary assay for glioma cell (LN229) sphere formation and growth. A. Histogram showing the effects of the indicated compounds on sphere formation. On day 1, sphere footprint areas were determined and normalized to the average footprint area of the unblinded vehicle-treated controls. On day 1, a larger footprint area indicates inhibition of aggregation. B. Histogram showing the effects of the indicated compounds on sphere growth. On day 7, the changes in sphere footprint areas were calculated and normalized to the average size change of the unblinded vehicle-treated controls. On day 7, a smaller value indicates reduced growth. […] Data is presented as percentages±s.e.m. of 2-4 replicates. Representative images of samples treated with DMSO (C) and two priority inhibitors (D and E) are shown. Relative day 1 footprint areas and day 7 growth measurements are indicated for each example.
FIGS. 15(A-D) illustrate a histogram and images of titration of selected compounds on LN229 sphere formation and growth. LN229 cells were plated onto non-adherent surfaces and treated with the indicated compounds at 100, 50, and 25 μM. A. On day 1, sphere footprint areas were determined and normalized to the average footprint area of the unblinded vehicle-treated controls. On day 1, a larger foot-print area indicates inhibition of aggregation. B. On day 7, the changes in sphere footprint areas were calculated and normalized to the average size change of the unblinded vehicle-treated controls. On day 7, a smaller value indicates reduced growth. […] Data is presented as percentages±s.e.m. The initial test at 100 μM and the follow-up at that dose with titration is shown. Each bar is the average of 2 replicates. Representative day 1 (C) and day 7 (D) images of samples treated with two priority inhibitors are shown. Relative day 1 sphere footprint areas and day 7 growth for each example are indicated.
Cells were seeded at a density of 7500 cells per well into the internal wells of 96-well plates coated with 0.75% (wt/vol) PVA as previously described. Compounds were added (2×replicates per treatment) at the indicated final concentrations, and control wells were treated with matching concentrations of DMSO. The external wells of the plates were filled with PBS to buffer against edge effects, and the cells were incubated at 37 °C and 5% CO2 for 7 days. A Leica CTR6500 microscope fitted with an automated stage was used to capture brightfield images on day 1 and day 7, and sphere footprint areas were measured using Image J (v1.52a http://imagej.nih.gov/ij) as previously described. To quantify the effects of the compounds on day 1, the footprint areas of the treated wells were normalized to the average area of the matched DMSO control wells. To quantify the effects of the compounds on sphere growth, the change in the sphere footprint areas was calculated ([…]) and then normalized to the average size change of the matched DMSO samples. All values are presented as average percentages±s.e.m.
We tested the effects of twenty-four compounds (11 flagged as inhibitory, 4 as stimulatory, and nine as inert in the initial scratch-wound screen, FIG. 2) on the ability of LN229 cells to mediate cell-cell adhesion and grow in 3D culture on non-adherent surfaces. To quantify sphere formation (FIG. 5A), the footprint areas of aggregates were measured on day 1 and normalized to that of the DMSO control. At this time point, a larger footprint size (>120%) indicates inhibition, i.e., the failure of cells to form a compact aggregate. To quantify sphere growth (FIG. 5B), we calculated the percent changes in sphere footprint areas between day 1 and day 7 and normalized them to that of the DMSO controls.

Gli36 cells = experiment: Gli36 scratch wound healing assay; format: cell-based, human; conditions: 100 μM; for Effect on Gli36 migration (scratch wound closure): endpoint 8 h, in words
Procedure: FIGS. 4(A-D) illustrate a histogram and images showing the results of the Gli36 scratch wound assays. Selected inhibitors, activators, and control compounds identified in LN229 and/or U87 scratch wound closure assays were retested at 100 μM for effects on Gli36 migration. A. Histogram showing the normalized migration distance for each treated sample. Data is presented as average % movement±s.e.m, and compound bar codes are shown on the x-axis. The majority of compounds were screened with an n of 2-4. Representative endpoint images of samples treated with DMSO (B) and two priority inhibitors (C and D) are shown. The relative migration distances for each example are shown.
(§1) Cells were seeded at a density of 2.7×10^4 cells per well into the internal wells of Incuyte1 Imagelock 96-well plates (Essen BioScience Inc., Ann Arbor, MI) and cultured overnight to form monolayers. Monolayers were wounded with an IncuCyte1 96-well Woundmaker Tool per the manufacturer's instructions. The outer wells were filled with PBS to buffer edge effects, and then the wounded monolayers were cultured in 100 μl of fresh media with compounds or DMSO (2×replicates at 100 μM or 1%, respectively) at 37 °C and 5% CO2. Images were captured every 4 hrs. using an Incucyte live cell imaging system equipped with the Scratch Wound Module. Scratch wound widths were calculated, per the manufacturer's instructions, at TO and at endpoint (typically T12 for LN229 and U87 cells and T8 for Gli36), which was taken as the last timepoint before wound closure. The cell migration distance was calculated from scratch widths [(T0Width−TendpointWidth)/2] and normalized to the average distance migrated by the DMSO controls. Values are presented as average percentages±standard errors of the means (s.e.m.). The majority of compounds were screened with an n of two, but the n for priority hits ranges from 2-6.
All inhibitors identified in the primary screens, a selection of U87-specific activators, and some apparently inert control compounds were rescreened in scratch wound assays using an additional glioma cell line (Gli36) (FIG. 4A).

LN229 cells [2] = experiment: LN229 scratch wound healing assay; format: cell-based, human; conditions: for activity at 100 µM: Homo sapiens, LN-229, normalized to DMSO controls, read-out: LN229 scratch wound closure relative to DMSO controls
From the text: FIGS. 3(A-D) illustrate a histogram and images of the LN229 scratch wound assays. A. Histogram showing the effects of all soluble wedge-targeted compounds on LN229 scratch wound closure. Cell movement into the scratches was quantified from scratch wound widths at the start and end of the assay and normalized to the average movement of cells in the unblinded DMSO control samples. Data is presented as average percentages±standard error of the means (s.e.m.), and compound bar codes are shown on the x-axis. The majority of compounds were screened with an n=2. Some priority compounds were screened with 3-6 replicates. Representative endpoint images of samples treated with DMSO (B) and two priority inhibitors (C and D) are shown. The relative migration distances for each example are indicated.
as §1
Scratch assays measure the ability of cells to migrate into a wound and close it creating a monolayer.

PTPμ, sequence (P28827 21-1452): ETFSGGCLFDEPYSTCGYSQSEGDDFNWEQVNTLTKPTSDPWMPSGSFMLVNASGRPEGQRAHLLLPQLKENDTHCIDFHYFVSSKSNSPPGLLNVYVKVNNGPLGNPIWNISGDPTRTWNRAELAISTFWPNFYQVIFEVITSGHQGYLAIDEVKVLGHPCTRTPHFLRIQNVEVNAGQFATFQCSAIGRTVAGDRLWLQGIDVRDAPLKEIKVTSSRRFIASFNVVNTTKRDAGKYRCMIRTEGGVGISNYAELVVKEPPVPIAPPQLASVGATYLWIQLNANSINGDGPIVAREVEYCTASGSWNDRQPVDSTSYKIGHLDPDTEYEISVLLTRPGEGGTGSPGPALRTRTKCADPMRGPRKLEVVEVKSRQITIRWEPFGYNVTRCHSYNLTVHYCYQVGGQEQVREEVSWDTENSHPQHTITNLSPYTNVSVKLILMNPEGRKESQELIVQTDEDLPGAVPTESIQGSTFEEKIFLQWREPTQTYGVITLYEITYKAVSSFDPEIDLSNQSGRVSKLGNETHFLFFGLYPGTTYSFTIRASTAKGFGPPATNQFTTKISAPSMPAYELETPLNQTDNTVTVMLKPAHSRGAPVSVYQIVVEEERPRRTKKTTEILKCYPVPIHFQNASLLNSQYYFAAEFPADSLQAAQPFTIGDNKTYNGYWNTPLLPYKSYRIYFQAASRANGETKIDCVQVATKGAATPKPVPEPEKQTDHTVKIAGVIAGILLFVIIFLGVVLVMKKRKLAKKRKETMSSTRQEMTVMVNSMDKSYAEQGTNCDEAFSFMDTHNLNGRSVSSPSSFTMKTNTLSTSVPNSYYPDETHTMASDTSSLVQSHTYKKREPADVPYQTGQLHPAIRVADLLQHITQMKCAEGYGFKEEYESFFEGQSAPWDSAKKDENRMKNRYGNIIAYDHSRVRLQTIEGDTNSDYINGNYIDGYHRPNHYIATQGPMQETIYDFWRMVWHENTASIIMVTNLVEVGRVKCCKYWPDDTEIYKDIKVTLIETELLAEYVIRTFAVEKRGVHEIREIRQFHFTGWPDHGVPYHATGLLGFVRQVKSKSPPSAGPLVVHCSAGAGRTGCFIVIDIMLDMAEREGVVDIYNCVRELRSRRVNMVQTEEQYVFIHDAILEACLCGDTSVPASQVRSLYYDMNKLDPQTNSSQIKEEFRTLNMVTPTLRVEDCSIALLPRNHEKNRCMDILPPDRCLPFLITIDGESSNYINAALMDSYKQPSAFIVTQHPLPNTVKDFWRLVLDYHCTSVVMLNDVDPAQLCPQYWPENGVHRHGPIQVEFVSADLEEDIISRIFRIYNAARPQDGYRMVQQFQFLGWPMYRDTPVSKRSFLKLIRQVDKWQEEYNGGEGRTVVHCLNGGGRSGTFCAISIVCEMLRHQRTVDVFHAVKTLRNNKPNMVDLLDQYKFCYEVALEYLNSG

| SMILES | Effect on PTPμ-dependent Sf9 aggregation / adhesion (PTPμ) | Effect on LN229 sphere formation (LN229 cells [1]; 50 μM) | Effect on LN229 sphere formation (LN229 cells [1]; 100 μM) | Effect on LN229 sphere growth (LN229 cells [1]; 100 μM, day 7) | sphere growth relative to control at 100 µM (LN229 cells [1]; Homo sapiens, LN-229, 168 h, read-out: LN229 sphere growth relative to control (threshold for inhibition), heading: LN229 sphere growth relative to control, 100 μM, day 7) [%] | Effect on Gli36 cell morphology in scratch assay (Gli36 cells) | Effect on Gli36 migration (scratch wound closure) (Gli36 cells) | Effect on LN229 cell morphology in scratch assay (LN229 cells [2]; 100 μM) | activity at 100 µM (LN229 cells [2]) [%] | Effect on LN229 sphere growth (LN229 cells [1]; 50 μM, day 7) | minimal effective concentration (LN229 cells [1]; Homo sapiens, LN-229, titration 100, 50, 25 μM, read-out: Lowest dose effective at inhibiting LN229 sphere growth) [µM] | Effect on LN229 scratch wound closure / migration (LN229 cells [2]; 100 μM, in words) |
| --- | --- | --- | --- | --- | --- | --- | --- | --- | --- | --- | --- | --- |
| O=C(NCc1nc(-c2ccncc2)no1)c1ccc(Cl)c(S(=O)(=O)NCc2ccccc2)c1 [Compound 247678791] | PTPμ-dependent adhesion; also recorded: inhibitors; also recorded: fewer/smaller aggregates; also recorded: affect PTPμ-mediated aggregation | slowed aggregation at 100 and 50 μM | aggregated more slowly than controls; also recorded: slowed aggregation at 100 and 50 μM | grew poorly in 3D culture | < 60 | did not dramatically affect Gli36 cell morphology | moderate inhibitor | subtle effects on the morphology of LN229 cells | < 60 | – | – | – |
| COc1cc(C)ccc1OCC(=O)Nc1nc(-c2c[nH]c(C(N)=O)c2)cs1 [Compound 247678835] | PTPμ-dependent adhesion; also recorded: inhibitors; also recorded: fewer/smaller aggregates; also recorded: strongest pan-inhibitor to affect PTPμ-dependent aggregation; also recorded: affect PTPμ-mediated aggregation | condensation was slowed | failed to compact and formed a mat of cells at the bottom of the well; also recorded: dramatically disrupted sphere formation at 100 μM | – | – | reduced the appearance of processes and cell chains at the scratch edge | strong priority inhibitor | rounded with no ruffles | < 60 | grew poorly in culture | 50 | completely blocked the movement of cells into the scratch; also recorded: strongest inhibitor identified in the initial screen of LN229 migration |
| CCN(C(=O)CN1C(=O)NC(C)(CCC(C)C)C1=O)c1cccc2ccccc12 (stereo not drawn) [Compound 247677616] | not shown to affect PTPμ-mediated aggregation; also recorded: did not affect PTPμ-dependent adhesion | – | completely blocked sphere formation | – | – | dramatic effect on Gli36 cell morphology | – | rounding | < 60 | – | – | – |

From patent publication US20260355168A1, “COMPOSITIONS AND METHODS FOR TREATING AND DETECTING CANCER” (CASE WESTERN RESERVE UNIVERSITY, priority 2022, published 2026)
